Results from ChEMBL document CHEMBL5465560, “Selectivity Literature for EUbOPEN Chemogenomic Library” (2024).
Each block holds one molecule with its values, some of them ahead of it.

How the values were obtained:
[1] = target: T1, cAMP-dependent protein kinase catalytic subunit PRKX (Homo sapiens) (UniProt P51817); experiment: Selectivity interaction (KinomeScan (DiscoverX)) EUB0000655a PRKX; settings: at 10 µM
T1 sequence (whole entry): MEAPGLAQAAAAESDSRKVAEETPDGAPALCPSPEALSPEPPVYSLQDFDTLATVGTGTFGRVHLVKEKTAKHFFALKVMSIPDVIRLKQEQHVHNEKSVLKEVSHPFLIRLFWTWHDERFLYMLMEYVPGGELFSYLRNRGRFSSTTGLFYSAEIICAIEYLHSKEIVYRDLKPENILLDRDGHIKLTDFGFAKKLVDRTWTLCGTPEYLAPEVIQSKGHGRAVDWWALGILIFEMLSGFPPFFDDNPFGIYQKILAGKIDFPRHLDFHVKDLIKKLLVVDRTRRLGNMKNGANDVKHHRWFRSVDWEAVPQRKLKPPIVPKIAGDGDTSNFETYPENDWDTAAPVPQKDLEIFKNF

[2] = target: RAC-gamma serine/threonine-protein kinase (Homo sapiens, UniProt Q9Y243); experiment: Selectivity interaction (KinomeScan (DiscoverX)) EUB0000607a AKT3; settings: at 10 µM
[3] = target: Serine/threonine-protein kinase Nek7 (Homo sapiens) (UniProt Q8TDX7); experiment: Selectivity interaction (Kinase panel (DSF assay)) EUB0001558a NEK7
[4] = target: T2, Ephrin type-B receptor 6 (Homo sapiens) (UniProt O15197); settings: at 10 µM
T2 sequence (whole entry): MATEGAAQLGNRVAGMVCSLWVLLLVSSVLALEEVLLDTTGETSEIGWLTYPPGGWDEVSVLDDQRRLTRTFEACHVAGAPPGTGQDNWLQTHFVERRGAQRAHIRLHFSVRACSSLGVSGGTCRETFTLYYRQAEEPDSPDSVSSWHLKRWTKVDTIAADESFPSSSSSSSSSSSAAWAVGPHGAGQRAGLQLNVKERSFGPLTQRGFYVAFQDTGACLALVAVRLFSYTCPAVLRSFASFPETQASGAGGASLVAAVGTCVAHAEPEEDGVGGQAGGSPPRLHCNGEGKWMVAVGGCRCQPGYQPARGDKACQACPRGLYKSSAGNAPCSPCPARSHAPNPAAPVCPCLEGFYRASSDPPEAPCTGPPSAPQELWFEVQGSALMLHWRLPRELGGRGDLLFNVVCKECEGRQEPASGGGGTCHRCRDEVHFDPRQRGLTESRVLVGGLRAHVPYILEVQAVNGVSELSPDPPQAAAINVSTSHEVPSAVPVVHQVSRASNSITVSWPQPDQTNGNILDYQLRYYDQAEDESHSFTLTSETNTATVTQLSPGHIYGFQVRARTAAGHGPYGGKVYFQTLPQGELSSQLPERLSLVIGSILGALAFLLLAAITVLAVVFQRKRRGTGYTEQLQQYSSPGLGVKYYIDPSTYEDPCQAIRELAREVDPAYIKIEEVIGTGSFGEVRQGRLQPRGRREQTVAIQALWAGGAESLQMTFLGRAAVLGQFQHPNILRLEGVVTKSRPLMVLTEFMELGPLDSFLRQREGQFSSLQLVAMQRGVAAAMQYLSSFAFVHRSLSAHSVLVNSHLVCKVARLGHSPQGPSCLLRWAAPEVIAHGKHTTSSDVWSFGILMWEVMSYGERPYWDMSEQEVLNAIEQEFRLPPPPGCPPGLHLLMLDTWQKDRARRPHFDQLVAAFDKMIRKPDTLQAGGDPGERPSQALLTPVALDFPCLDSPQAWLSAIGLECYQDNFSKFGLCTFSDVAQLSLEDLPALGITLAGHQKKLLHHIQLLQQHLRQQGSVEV

[5] = target: Mitogen-activated protein kinase kinase kinase 14 (Homo sapiens) (UniProt Q99558); experiment: Selectivity interaction (Kinase panel (Invitrogen)) EUB0000639a MAP3K14; settings: at 200 nM
[6] = target: Tyrosine-protein kinase JAK1 (Homo sapiens, UniProt P23458); experiment: Selectivity interaction (ActivX KiNativ screen (kinase selectivity in THP-1 cell lysates)) EUB0000639a JAK1; format: subcellular; settings: lysate, at 0.01 µM
[7] = target: T3, Serine/threonine-protein kinase greatwall (Homo sapiens) (UniProt Q96GX5); experiment: Selectivity interaction (ActivX KiNativ screen (kinase selectivity in THP-1 cell lysates)) EUB0000639a MASTL; format: subcellular; settings: lysate, at 0.2 µM
T3 sequence (whole entry): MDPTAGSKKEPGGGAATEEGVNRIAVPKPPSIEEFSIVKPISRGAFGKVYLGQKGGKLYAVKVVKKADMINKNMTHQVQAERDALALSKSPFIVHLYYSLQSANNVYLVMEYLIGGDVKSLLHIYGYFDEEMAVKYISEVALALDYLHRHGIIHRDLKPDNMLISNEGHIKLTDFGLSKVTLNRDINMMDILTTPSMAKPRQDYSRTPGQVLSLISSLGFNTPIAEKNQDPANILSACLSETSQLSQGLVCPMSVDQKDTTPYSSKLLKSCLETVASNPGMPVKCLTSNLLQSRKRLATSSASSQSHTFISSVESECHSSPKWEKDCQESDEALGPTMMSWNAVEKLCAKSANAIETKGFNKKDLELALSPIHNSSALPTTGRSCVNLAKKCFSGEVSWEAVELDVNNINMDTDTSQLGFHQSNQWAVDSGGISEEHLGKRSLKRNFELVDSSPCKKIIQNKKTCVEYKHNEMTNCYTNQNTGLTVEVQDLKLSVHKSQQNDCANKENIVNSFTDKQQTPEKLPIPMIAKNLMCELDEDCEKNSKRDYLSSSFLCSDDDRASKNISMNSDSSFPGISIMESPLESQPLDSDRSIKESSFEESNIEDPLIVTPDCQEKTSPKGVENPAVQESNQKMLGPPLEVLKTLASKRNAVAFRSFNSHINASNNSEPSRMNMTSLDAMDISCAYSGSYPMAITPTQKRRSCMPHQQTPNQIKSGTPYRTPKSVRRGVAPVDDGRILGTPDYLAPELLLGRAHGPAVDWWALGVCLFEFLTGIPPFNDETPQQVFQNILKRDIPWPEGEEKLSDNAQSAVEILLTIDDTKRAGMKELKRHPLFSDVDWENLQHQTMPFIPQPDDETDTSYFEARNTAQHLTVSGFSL

[8] = target: Glycogen synthase kinase-3 beta (Homo sapiens, UniProt P49841); experiment: Selectivity interaction (ActivX KiNativ screen (kinase selectivity in THP-1 cell lysates)) EUB0000639a GSK3B; format: subcellular; settings: lysate
Glycogen synthase kinase-3 beta, sequence (P49841 whole entry, looked up): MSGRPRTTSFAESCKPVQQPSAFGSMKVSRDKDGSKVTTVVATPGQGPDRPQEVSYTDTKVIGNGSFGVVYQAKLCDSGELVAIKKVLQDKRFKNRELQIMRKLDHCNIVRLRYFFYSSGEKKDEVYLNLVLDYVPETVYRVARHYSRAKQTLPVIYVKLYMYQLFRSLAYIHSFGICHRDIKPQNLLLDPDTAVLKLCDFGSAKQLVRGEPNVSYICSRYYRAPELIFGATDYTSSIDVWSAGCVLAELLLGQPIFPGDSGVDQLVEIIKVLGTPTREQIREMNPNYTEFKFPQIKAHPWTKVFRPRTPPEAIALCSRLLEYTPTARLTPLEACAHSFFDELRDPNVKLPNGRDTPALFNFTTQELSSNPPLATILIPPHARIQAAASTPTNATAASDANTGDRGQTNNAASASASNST

Mitogen-activated protein kinase kinase kinase 14 (Homo sapiens), sequence (Q99558 whole entry, looked up): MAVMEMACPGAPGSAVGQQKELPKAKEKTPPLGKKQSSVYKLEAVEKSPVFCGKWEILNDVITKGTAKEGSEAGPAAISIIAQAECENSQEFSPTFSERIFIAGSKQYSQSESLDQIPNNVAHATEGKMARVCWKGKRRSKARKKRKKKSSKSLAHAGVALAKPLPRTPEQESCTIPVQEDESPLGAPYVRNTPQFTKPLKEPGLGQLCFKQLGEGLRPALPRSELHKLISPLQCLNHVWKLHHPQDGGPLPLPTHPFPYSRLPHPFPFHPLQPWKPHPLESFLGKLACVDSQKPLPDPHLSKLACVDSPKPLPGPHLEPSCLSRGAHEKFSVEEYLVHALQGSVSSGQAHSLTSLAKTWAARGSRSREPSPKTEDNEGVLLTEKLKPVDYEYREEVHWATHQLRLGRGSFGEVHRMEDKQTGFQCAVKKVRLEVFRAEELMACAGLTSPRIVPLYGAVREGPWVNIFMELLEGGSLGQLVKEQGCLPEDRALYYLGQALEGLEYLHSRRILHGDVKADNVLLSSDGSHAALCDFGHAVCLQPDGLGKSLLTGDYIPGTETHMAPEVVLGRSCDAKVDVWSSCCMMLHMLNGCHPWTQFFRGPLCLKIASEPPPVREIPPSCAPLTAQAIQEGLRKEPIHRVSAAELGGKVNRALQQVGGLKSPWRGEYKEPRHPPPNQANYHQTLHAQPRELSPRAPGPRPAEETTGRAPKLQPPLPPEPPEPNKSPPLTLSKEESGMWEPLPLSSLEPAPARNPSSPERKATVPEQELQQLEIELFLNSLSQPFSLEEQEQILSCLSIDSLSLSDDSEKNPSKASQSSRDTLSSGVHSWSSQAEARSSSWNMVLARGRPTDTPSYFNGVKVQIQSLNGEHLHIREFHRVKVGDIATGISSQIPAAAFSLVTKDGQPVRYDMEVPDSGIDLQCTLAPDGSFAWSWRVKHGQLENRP
RAC-gamma serine/threonine-protein kinase, sequence (Q9Y243 whole entry): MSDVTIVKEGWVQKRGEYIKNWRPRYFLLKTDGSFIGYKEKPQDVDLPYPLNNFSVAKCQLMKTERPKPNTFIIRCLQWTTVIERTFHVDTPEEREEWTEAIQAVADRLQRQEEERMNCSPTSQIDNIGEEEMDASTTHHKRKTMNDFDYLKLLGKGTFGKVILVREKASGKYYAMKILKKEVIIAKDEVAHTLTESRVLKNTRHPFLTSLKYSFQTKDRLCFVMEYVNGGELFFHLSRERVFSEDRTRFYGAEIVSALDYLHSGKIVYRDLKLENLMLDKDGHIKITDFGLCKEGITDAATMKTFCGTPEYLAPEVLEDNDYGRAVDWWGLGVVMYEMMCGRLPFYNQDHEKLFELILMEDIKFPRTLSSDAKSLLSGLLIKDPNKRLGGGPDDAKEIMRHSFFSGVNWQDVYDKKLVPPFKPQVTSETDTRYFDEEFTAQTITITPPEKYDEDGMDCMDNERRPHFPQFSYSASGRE
Serine/threonine-protein kinase Nek7 (Homo sapiens), sequence (Q8TDX7 whole entry, looked up): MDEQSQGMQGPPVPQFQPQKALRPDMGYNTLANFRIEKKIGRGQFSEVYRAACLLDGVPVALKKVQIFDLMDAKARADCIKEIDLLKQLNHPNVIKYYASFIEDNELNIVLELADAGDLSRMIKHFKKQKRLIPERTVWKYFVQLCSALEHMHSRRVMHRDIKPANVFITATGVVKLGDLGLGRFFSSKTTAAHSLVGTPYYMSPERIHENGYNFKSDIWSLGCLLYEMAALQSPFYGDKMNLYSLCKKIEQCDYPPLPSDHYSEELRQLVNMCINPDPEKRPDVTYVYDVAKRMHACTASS
Tyrosine-protein kinase JAK1, sequence (P23458 whole entry): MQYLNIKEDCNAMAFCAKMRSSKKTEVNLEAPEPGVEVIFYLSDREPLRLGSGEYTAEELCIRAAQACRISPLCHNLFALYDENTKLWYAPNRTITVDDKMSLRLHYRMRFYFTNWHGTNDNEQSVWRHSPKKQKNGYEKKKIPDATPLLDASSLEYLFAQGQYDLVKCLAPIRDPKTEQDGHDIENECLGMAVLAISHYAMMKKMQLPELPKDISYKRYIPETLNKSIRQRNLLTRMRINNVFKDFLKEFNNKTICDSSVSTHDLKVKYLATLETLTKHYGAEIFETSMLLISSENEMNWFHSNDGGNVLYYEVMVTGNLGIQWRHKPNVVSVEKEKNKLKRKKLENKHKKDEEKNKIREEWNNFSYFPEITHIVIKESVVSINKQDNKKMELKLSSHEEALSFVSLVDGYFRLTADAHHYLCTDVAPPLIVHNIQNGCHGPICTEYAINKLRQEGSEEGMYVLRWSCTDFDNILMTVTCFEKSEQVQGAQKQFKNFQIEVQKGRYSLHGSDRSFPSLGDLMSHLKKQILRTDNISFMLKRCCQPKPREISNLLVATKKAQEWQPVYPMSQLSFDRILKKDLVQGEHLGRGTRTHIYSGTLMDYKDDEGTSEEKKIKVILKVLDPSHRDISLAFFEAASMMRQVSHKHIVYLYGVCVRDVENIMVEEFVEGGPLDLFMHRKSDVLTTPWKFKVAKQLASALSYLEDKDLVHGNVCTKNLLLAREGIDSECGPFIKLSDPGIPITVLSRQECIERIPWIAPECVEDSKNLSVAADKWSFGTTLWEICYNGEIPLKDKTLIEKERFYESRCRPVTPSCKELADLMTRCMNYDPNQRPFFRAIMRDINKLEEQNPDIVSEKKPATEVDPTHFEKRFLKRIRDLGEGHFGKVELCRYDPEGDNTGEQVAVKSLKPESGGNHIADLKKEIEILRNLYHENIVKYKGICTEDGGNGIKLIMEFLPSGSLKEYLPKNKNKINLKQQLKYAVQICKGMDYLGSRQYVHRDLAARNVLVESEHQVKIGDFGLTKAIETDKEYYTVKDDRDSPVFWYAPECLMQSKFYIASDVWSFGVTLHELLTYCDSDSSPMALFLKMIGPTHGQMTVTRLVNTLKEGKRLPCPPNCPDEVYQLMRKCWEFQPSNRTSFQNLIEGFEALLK

SMILES: CN(C)CCOc1ccc(-c2nc(-c3ccncc3)c(-c3ccc4c(c3)CC/C4=N\O)[nH]2)cc1
% of control [1]: 94%

SMILES: CNC(=O)Nc1ccc(-c2nc(N3CC4CCC(C3)O4)c3cnn(C4CCC5(CC4)OCCO5)c3n2)cc1
% of control [2]: 86%

SMILES: CC(C)(O)[C@H](F)CN1Cc2cc(NC(=O)c3cnn4cccnc34)c(N3CCOCC3)cc2C1=O
dTM [3]: -0.2 K

SMILES: Cc1cc([C@@H](C)Nc2ccccc2C(=O)O)c2nc(N3CCOCC3)cc(=O)n2c1 [AZD-6482]
% of control [4]: 41%

% of inhibition [5]: -0.0527% | % of inhibition [6]: -2.1% | % of inhibition [7]: 16.4% | % of inhibition ([8]; at 0.01 µM): -3.7% | % of inhibition ([8]; at 0.04 µM): 1.4% | % of inhibition ([8]; at 0.2 µM): 2.2% | % of inhibition ([8]; at 1 µM): 2% | % of inhibition ([8]; at 5 µM): -4.4%
SMILES: CC[C@@H]1[C@H](F)C(=O)N[C@@H]1COc1nccc2cc(C(N)=O)c(OC)cc12 [ZIMLOVISERTIB]
